{"source": "patent US10189887B2", "about": "“Polypeptides and uses thereof for reducing CD95-mediated cell motility” (INSERM (INSTITUT NATIONAL DE LA SANTÉ ET DE LA RECHERCHE …, priority 2014, dated 2019)", "key": {"[1]": {"test_system": "CD95-mediated Ca^2+ response", "assay": "Calcium response to cl-CD95L in MEF", "assay_type": "cell-based", "conditions": "MEFs pre-incubated 1 hr, 10 μM peptide; 100 ng/ml cl-CD95L", "protocol": "Cells were loaded with Fura2-AM (1 μM) at resting temperature for 30 min in Hank's Balanced Salt Solution (HBSS). After washing with HBSS, the cells were incubated for 15 min in the absence of Fura2-AM to complete de-esterification of the dye. Cells were placed in a thermostated chamber (37° C.) of an inverted epifluorescence microscope (Olympus IX70) equipped with a ×40, UApo/340-1.15 W water-immersion objective (Olympus), and fluorescence micrograph images were captured at 510 nm and at 12-bit resolution by a fast-scan camera (CoolSNAP fx Monochrome, Photometrics). To minimize UV light exposure, 4×4 binning function was used. Fura2-AM was alternately excited at 340 and 380 nm, and ratios of the resulting images (excitations at 340 and 380 nm and emission filter at 520 nm) were produced at constant intervals (5 s or 10 s according to the stimulus). […] Fluorescent images were pseudocolored using the IMD display mode in MetaFluor and assembled without further manipulation in Photoshop (Adobe). Raw data were acquired with MetaFluor and graphed in Origin (OriginLab). […]"}, "Th17 cells": {"test_system": "Th17 cells", "assay": "Endothelial transmigration of CD4 T-cell subsets (Th17, Th1, Treg), Boyden chamber", "assay_type": "cell-based, human", "conditions": "indicated concentrations of peptide, Boyden Chamber assay", "protocol": "Animal experiments were subject to ethical review by the University of Nottingham were appropriate and conducted using PPL 40/3412 in accordance with the UK Home Office guidance and under ASPA (1986). For the generation of murine T-cell subsets, spleens were removed from C57Bl/6 mice and single cell suspensions prepared. CD4^+CD62L^+ naïve cells were isolated using Miltenyi Biotec microbeads. Naïve human CD4^+ T-cells were prepared using the Miltenyi Biotec naïve CD4^+ T-cell isolation kit II, which are sorted produced a 99% pure population of CD4^+CD45RA^+ cells. Purified cells were cultured in complete IMDM media all with α-CD3 (1 μg/ml), α-CD28 (2 μg/ml), and as follows; Th1 cells IL-12 (10 ng/ml) with α-IL-4 (10 μg/ml), Th2 cells IL-4 (10 ng/ml) and α-IFN-γ (10 μg/ml), Th17 cells Il-6 (10 ng/ml), TGF-β1 (2 ng/ml), α-IFN-γ (10 μg/ml) with α-IL-4 (10 μg/ml), and Tregs IL-2 (10 ng/ml) TGF-β1 (5 ng/ml), α-IFN-γ (10 μg/ml) and α-IL-4 (10 μg/ml). Cells were converted to T-cell subsets over five days as outlined above. All cytokines were supplied by PeproTech (London, UK). Mouse CD3 (clone 2C11); human CD3 (UCHT1); mouse CD28 (37.51); human CD28 (CD28.2); mouse IL-4 (11B11); human IL-4 (MP4-25D2); mouse IFN-γ (XMG1.2); human IFN-γ B27 came from BD Pharmigen.\nAfter hydration of the Boyden chamber membranes containing 3 μm pore size membranes (Millipore, Molsheim, France), activated T-lymphocytes (10^6) were added to the top chamber on a confluent monolayer of HUVEC in a low serum (1%)-containing medium. […] In experiments using human sera, 500 μl of serum from either healthy donors or SLE patients was added in the lower reservoir. Cells were cultured for 24 h at 37° C. in a 5% CO2 humidified incubator. Transmigrated cells were counted in the lower reservoir by flow cytometry using a standard of 2.5×10^4 fluorescent beads (Flow-count, Beckman Coulter).\nBlocking antibodies were used against E-selectin and ICAM-1 in the CHEMICON® endothelial cell adhesion assay (Millipore). Briefly, after activation of the endothelial cell layer with TNF-α, anti-mouse Ig controls, anti-E-selectin or anti-ICAM-1 were added at final concentrations of 10 μg/ml. Thereafter calcein-AM-stained T-cell subsets were incubated for 24 hours and unbound cells are washed. Cells attached to the endothelium were assessed using fluorescence plate reader."}, "Th17 cell accumulation": {"test_system": "Th17 cell accumulation", "assay": "In vivo administration of cl-CD95L: cell accumulation in peritoneal cavity and spleen", "parameters": "species or system C57BL/6 mice", "conditions": "24 hours later", "protocol": "Female C57BL/6 mice (Harlan UK) aged between 8-10 weeks were placed in groups of 6 and administered IP. Twenty-four hours following injection, mice were sacrificed and periteonial cavities were washed with 5 ml of PBS/2% FCS, blood smears were prepared, and spleens were collected. Blood smears and cytospins of periteonal cells (PECs) were stained with Giemsa and differential counts performed. Single cell suspensions of spleens and PECs were prepared, cell counts performed, CD4+CD62− T-cells were isolated with Miltenyi microbeads and number of cells determined by trypan blue exclusion. For experiments where animals received TAT-mCID or control peptides, 800 μg (40 mg/kg) was injected IP 2 hrs prior to administration of cl-CD95L. All mouse experiments were performed under ethical approval from the University of Nottingham local animal ethics committee and adhering to UK Home Office guidelines under the Project License 40/3412.\nSingle cell suspensions of spleens and PECs were prepared as described above. RNA was extracted from CD4 T-cells using phenol/chloroform. cDNA was prepared using the Promega GO-Script Reverse Transcription Kit and used in Real-Time PCR. Briefly, cDNA samples were subject to Taqman assay performed on a Roche Lightcycler. Results are reported as expression levels were calculated using the Δct method relative to HPRT."}}}
{"substance": "TAT-CID: cell penetrating peptide linking the 36-amino acid-stretch of CID (CD95 residues 175 to 210) to the HIV-TAT sequence; SEQ ID NO: 6 (RKKRRQRRRKRKEVQKTCRKHRKENQGSHESPTLNPETVAINLSD; TAT-CID)", "values": [{"measurement": "initial phase of the calcium response to cl-CD95L", "setting": "[1]", "result": "blocked it"}, {"measurement": "CD95-mediated endothelial transmigration of Th17 cells", "setting": "Th17 cells", "result": "inhibited the CD95-mediated endothelial transmigration of human Th17 cells in a dose-dependent manner"}, {"measurement": "total cell counts from the PEC (accumulation of T lymphocytes)", "setting": "Th17 cell accumulation; 40 mg/kg two hours prior to IP cl-CD95L (200 ng)", "result": "abolished the CD95-mediated accumulation of T lymphocytes"}, {"measurement": "IL17 production in the peritoneal cavity", "setting": "Th17 cell accumulation; 40 mg/kg two hours prior to IP cl-CD95L (200 ng), ELISA", "result": "prevented"}, {"measurement": "levels of IFN-γ versus control peptide", "setting": "Th17 cell accumulation; 40 mg/kg two hours prior to IP cl-CD95L", "result": "no differences were noted"}]}
